Data as given in patent publication US20170073337A1, “DIHYDROTHIAZINE AND DIHYDROOXAZINE DERIVATIVES HAVING BACE1 INHIBITORY ACTIVITY” (Shionogi & Co., Ltd., priority 2014, published 2017).
Converted amounts (≈) assume the structure as drawn. Where two headings read alike, the source gives them in different places.

Assays:
Recombinant human BACE1 = molecular target: T1, Recombinant human BACE1 (Homo sapiens, UniProt P56817); assay: Assay of BACE1 inhibitory activity: 384-well; type: biochemical; details: Assay format 384-well
T1 construct: purchased R&D Systems
Outline: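 Recombinant human BACE1 was incubated 2 h at 25 °C with a biotin/Eu-cryptate-labelled peptide substrate and compound in DMSO. Streptavidin-XL665 in pH 7.0 phosphate buffer containing 0.8 mol/L KF was then added for 30 min at 25 °C for HTRF detection.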

[1] = test system: Aβ production in neuroblastoma SH-SY5Y cells (SH/APPwt); assay: β-amyloid (Aβ) production inhibitory effect in cell: 384-well; type: cell-based; details: Homo sapiens, Assay format 384-well
Outline: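 SH-SY5Y cells overexpressing human wild-type APP were seeded together with test compound (final DMSO 1%) and cultured for 21 h. Aβ1-40 in the supernatant was measured by HTRF after overnight incubation at 4 °C in the dark, reading fluorescence at 620 and 665 nm.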

Solubility test = type: physicochemical
Outline: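 Dissolved concentration determined by LC/MS or SPE/MS (absolute calibration) in diluted filtrates, after 2 μL of 10 mmol/L DMSO stock was added to 198 μL JP 1st or JP 2nd fluid and equilibrated either 1 h with shaking at room temperature or 16 h standing at 25 °C.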

Metabolic stability test = type: in vitro ADME; details: human liver microsomes, 37° C., 30 minutes, NADPH
Outline: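 Parent compound was measured by LC/MS/MS or SPE/MS after a methanol/acetonitrile quench and reported as % remaining, with the 0 min sample set to 100%. Incubations ran 30 min at 37 °C in pH 7.4 Tris buffer containing pooled human liver microsomes at 0.5 mg protein/mL and 1 mmol/L NADPH.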

[2] = molecular target: T2, human ether-a-go-go related gene (hERG) channel (Homo sapiens, UniProt Q12809); assay: hERG test; type: cell-based; details: % inhibition of IKr tail peak current at 3 uM; CHO cells expressing hERG
T2 construct: expressed in transfected cells; host or cells: CHO cells
Source text: For the purpose of assessing risk of an electrocardiogram QT interval prolongation, effects on delayed rectifier K+ current (IKr), which plays an important role in the ventricular repolarization process of the compound of the present invention, was studied using CHO cells expressing human ether-a-go-go related gene (hERG) channel.
A cell was retained at a membrane potential of […] by whole cell patch clamp method using an automated patch clamp system (QPatch:Sophion Bioscience A/S). After application of leak potential at −50 mV, IKr induced by depolarization pulse stimulation at +20 mV for 2 seconds and, further, repolarization pulse stimulation at −50 mV for 2 seconds was recorded.

[3] = molecular target: T3, P-gp (MDR1 expressing LLC-PK1 cells) (Homo sapiens, UniProt P08183); assay: P-gp substrate test; type: in vitro ADME; details: net flux = Efflux Ratio in MDR1 expressing cells / Efflux Ratio in parent LLC-PK1 cells
T3 construct: host or cells: LLC-PK1
Protocol: • 1. Cell line: • a. MDR/LLC-PK1 (Becton Dickinson) • b. LLC-PK1 (Becton Dickinson) • 2. Reference substrates: • a Digoxin (2 μM)
1. […] After incubation for designed time at 37° C., an aliquot (50 μL) of transport buffer in the donor and receiver side were collected. Assay was performed by duplicate or triplicate. 3. Reference substrate and the present invention in the aliquot was quantified by LC/MS/MS.
Pc(cm/sec)−Permeated amount (pmol)/area of cell membrane (cm2)/initial concentration (nM)/incubation time (sec)
The efflux ratio was calculated using the following equation:
Efflux Ratio=Basolateral-to-Apical Pe/Apical-to-Basolateral Pe
The net flux was calculated using the following equation
Net flux=Efflux Ratio in MDK1 expressing cells/Efflux Ratio in parent cells

CYP1A2 = molecular target: T4, CYP1A2 (Homo sapiens, UniProt P05177); assay: CYP inhibition test (CYP1A2); type: in vitro ADME; details: pooled human liver microsomes; 7-ethoxyresorufin O-deethylation
T4 construct: The commercially available pooled human liver microsomes are used as an enzyme resource; from tissue; host or cells: pooled human liver microsomes
T4 sequence (P05177 1-516): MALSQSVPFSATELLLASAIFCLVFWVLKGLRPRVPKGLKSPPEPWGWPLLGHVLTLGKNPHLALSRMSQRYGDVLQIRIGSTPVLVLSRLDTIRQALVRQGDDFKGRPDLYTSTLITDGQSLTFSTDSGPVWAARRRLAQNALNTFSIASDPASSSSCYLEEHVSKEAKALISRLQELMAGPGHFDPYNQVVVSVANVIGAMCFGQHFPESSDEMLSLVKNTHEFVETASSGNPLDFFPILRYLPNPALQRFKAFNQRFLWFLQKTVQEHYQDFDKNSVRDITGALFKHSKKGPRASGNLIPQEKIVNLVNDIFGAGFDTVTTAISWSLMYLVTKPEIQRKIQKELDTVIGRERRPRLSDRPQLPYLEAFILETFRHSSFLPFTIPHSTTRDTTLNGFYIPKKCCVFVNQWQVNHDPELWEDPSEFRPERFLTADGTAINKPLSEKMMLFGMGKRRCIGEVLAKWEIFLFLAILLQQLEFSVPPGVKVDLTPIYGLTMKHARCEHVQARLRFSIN
Outline: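 Inhibition of CYP1A2 was measured in commercially available pooled human liver microsomes (0.2 mg protein/mL) using 7-ethoxyresorufin O-deethylation with 0.5 μmol/L ethoxyresorufin. Test compound at 1, 5, 10, 20 μmol/L in […] Hepes buffer was incubated at 37° C. after NADPH addition; methanol/acetonitrile=1/1 (v/v) stopped the reaction, and resorufin was read fluorescently.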

CYP2C9 = molecular target: T5, CYP2C9 (Homo sapiens, UniProt P11712); assay: CYP inhibition test (CYP2C9); type: in vitro ADME; details: pooled human liver microsomes; tolbutamide methyl-hydroxylation
T5 construct: The commercially available pooled human liver microsomes are used as an enzyme resource; from tissue; host or cells: pooled human liver microsomes
Outline: (§1)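 Pooled human liver microsomes (0.2 mg protein/mL) with compound at 1, 5, 10 and 20 μmol/L and NADPH, at 37 °C. Marker substrates: dextromethorphan 5 μmol/L (2D6), terfenadine 1 μmol/L (3A4), S-mephenytoin 50 μmol/L (2C19), tolbutamide 100 μmol/L (2C9). Metabolites were measured by LC/MS/MS, and IC50 was derived by logistic fit of remaining activity against the DMSO control.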

CYP2C19 = molecular target: T6, CYP2C19 (Homo sapiens, UniProt P33261); assay: CYP inhibition test (CYP2C19); type: in vitro ADME; details: pooled human liver microsomes; mephenytoin 4′-hydroxylation
T6 construct: The commercially available pooled human liver microsomes are used as an enzyme resource; from tissue; host or cells: pooled human liver microsomes
Outline: as §1

CYP2D6 = molecular target: T7, CYP2D6 (Homo sapiens, UniProt P10635); assay: CYP inhibition test (CYP2D6); type: in vitro ADME; details: pooled human liver microsomes; dextromethorphan O-demethylation
T7 construct: The commercially available pooled human liver microsomes are used as an enzyme resource; from tissue; host or cells: pooled human liver microsomes
Source text: The CYP inhibition test is a test to assess the inhibitory effect of a compound of the present invention towards typical substrate metabolism reactions on CYP enzymes in human liver microsomes. The marker reactions on human main five CYP enzymes (CYP1A2, 2C9, 2C19, 2D6, and 3A4) are used as follows: 7-ethoxyresorufin O-deethylation (CYP1A2), tolbutamide methyl-hydroxylation (CYP2C9), mephenytoin 4′-hydroxylation (CYP2C19), dextromethorphan O-demethylation (CYP2D6), and terfenadine hydroxylation (CYP3A4). The commercially available pooled human liver microsomes are used as an enzyme resource.
The reaction conditions were as follows: substrate, 0.5 μmol/L ethoxyresorufin (CYP1A2), 100 μmol/L tolbutamide (CYP2C9), 50 μmol/L, S-mephenytoin (CYP2C19), 5 μmol/L dextromethorphan (CYP2D6), 1 μmol/L terfenadine (CYP3A4): reaction time, 15 minutes: reaction temperature, 37° C.; enzyme, pooled human liver microsomes 0.2 mg protein/mL; concentrations of the compound of the present invention, 1, 5, 10, 20 μmol/L (four points).
Five kinds of substrates, human liver microsomes, and a compound solution of the present invention in […] Hepes buffer were added to a 96-well plate at the composition as described above as a reaction solution. NADPH as a cofactor was added to this 96-well plate in order to initiate metabolism reactions. After the incubation at 37° C.for […], a methanol/acetonitrile=1/1 (v/v) solution was added to stop the reaction. After the centrifugation at 3000 rpm for 15 minutes, resorufin (CYP1A2 metabolite) in the supernatant was quantified by a fluorescent plate reader, and hydroxytolbutamide (CYP2C9 metabolite), 4′-hydroxymephenytoin (CYP2C19 metabolite), dextrorphan (CYP2D6 metabolite), and terfenadine alcohol metabolite (CYP3A4 metabolite) in the supernatant were quantified by LC/MS/MS.
The sample adding DMSO to a reaction system instead of compound of the present invention solution was adopted as a control (100%) because DMSO was used as a solvent to dissolve a compound of the present invention. Remaining activity (%) was calculated at each concentration of a compound of the present invention, and IC50 value was calculated by reverse presumption by a logistic model using a concentration and an inhibition rate.

CYP3A4 = molecular target: T8, CYP3A4 (Homo sapiens, UniProt P08684); assay: CYP inhibition test (CYP3A4); type: in vitro ADME; details: pooled human liver microsomes; terfenadine hydroxylation
T8 construct: The commercially available pooled human liver microsomes are used as an enzyme resource; from tissue; host or cells: pooled human liver microsomes
Outline: as §1

[4] = test system: Aβ production in neuroblastoma SH-SY5Y cells (SH/APPwt); assay: β-amyloid (Aβ) production inhibitory effect in cell: 96-well; type: cell-based; details: Homo sapiens, Assay format 96-well
Protocol: Neuroblastoma SH-SY5V cells (SH/APPwt) with human wild-type R-APP excessively expressed therein were prepared at 8×10^5 cells/mL, and 150 μl portions thereof were inoculated into each well of a 96-well culture plate (Falcon). The cells were cultured for 2 hours at […]. in a 5% gaseous carbon dioxide incubator. […] Namely, the final DMSO concentration was 1%, and the amount of the cell culture was 200 μl. After the incubation was performed for 24 hours from the addition of the test compound, 100 μl of the culture supernatant was collected from each fraction. The amount of the Aβ in each fraction was measured. The Aβ amount was measured as follows. 10 μl of a homogeneous time resolved fluorescence (HTRF) measurement reagent (Amyloid β1-40 peptide: CIS bio international) and 10 μof the culture supernatant were put into a 384-well half area microplate (black microplate, Costar) and mixed with each other, and then left standing overnight at 4° C. while the light was shielded.

[5] = JP 1st fluid, pH 1.2, simulated gastric fluid, kinetic from dmso stock, read-out: JP1
[6] = solubility in JP 2nd fluid B, 1% DMSO, *2: shaken for 1 hour at room temperature, read-out: JP2_μM

T1 sequence (P56817 46-501): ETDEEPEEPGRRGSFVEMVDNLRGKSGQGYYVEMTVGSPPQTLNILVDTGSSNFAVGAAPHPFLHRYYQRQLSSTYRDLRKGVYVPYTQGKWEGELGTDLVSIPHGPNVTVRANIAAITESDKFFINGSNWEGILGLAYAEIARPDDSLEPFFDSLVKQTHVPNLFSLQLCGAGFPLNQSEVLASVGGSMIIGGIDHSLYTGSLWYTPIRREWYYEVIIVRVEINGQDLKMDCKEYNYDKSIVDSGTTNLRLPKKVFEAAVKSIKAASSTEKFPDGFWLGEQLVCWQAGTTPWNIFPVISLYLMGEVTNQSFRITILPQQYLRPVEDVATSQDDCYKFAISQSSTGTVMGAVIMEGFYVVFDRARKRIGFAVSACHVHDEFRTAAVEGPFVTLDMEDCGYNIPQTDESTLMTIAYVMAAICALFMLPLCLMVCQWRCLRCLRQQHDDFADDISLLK
T5 sequence (P11712 whole entry): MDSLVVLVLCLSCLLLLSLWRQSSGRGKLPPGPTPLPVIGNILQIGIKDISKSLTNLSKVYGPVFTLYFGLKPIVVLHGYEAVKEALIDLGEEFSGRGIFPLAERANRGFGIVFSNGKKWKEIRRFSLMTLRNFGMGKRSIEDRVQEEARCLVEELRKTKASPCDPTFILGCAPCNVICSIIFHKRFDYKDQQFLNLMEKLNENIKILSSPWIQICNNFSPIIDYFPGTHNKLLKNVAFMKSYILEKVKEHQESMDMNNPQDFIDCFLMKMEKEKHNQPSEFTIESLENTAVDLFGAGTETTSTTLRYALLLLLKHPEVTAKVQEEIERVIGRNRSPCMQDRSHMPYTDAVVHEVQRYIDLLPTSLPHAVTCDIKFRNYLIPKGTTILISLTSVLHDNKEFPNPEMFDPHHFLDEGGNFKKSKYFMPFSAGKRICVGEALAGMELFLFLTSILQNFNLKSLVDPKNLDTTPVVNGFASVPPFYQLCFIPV
T8 sequence (P08684 whole entry): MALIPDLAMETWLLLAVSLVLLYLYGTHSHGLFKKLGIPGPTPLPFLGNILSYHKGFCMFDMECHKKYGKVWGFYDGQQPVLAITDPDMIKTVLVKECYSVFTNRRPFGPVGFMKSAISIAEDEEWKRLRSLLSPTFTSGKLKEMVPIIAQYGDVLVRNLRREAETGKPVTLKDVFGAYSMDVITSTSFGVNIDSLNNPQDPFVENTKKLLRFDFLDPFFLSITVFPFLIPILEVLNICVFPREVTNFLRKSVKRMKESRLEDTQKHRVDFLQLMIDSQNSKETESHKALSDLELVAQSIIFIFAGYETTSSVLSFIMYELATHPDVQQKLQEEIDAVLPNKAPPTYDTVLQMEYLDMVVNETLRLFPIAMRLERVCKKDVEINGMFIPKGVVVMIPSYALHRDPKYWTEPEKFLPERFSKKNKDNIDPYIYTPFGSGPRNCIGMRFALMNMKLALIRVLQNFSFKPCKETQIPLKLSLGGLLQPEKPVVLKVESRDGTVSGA
T3 sequence (P08183 whole entry): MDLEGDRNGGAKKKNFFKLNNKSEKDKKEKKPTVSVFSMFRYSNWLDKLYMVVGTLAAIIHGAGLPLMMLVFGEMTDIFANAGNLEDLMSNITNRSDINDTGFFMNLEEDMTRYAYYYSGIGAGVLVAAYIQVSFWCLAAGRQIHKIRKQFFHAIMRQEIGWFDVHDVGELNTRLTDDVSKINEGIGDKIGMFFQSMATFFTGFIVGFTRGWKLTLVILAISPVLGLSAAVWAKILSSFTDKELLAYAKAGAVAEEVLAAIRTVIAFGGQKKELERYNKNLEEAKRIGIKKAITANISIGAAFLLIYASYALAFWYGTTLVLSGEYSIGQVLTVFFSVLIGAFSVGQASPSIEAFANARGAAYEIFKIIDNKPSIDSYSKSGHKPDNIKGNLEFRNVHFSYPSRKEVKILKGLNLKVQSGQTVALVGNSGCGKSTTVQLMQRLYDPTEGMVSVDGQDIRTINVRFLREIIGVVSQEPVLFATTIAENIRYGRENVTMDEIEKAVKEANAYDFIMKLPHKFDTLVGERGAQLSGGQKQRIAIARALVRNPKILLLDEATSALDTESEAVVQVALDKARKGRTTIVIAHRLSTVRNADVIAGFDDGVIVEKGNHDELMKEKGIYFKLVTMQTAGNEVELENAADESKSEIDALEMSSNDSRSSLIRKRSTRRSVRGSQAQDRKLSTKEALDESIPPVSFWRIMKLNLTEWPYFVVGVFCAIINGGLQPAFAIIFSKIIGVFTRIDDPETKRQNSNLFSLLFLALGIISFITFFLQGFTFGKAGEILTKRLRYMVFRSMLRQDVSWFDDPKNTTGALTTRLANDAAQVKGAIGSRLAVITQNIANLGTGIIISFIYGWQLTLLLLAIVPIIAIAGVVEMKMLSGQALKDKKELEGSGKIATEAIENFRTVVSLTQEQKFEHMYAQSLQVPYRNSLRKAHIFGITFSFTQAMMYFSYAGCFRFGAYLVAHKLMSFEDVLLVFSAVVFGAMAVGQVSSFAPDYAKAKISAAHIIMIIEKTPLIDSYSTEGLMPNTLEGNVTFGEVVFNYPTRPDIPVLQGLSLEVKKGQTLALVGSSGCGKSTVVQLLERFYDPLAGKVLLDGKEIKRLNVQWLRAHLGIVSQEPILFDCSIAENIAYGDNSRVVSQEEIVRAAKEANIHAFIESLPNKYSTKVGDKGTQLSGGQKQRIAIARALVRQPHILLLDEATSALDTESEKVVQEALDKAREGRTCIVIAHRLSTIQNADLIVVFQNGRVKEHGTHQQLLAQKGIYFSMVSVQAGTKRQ
T6 sequence (P33261 whole entry): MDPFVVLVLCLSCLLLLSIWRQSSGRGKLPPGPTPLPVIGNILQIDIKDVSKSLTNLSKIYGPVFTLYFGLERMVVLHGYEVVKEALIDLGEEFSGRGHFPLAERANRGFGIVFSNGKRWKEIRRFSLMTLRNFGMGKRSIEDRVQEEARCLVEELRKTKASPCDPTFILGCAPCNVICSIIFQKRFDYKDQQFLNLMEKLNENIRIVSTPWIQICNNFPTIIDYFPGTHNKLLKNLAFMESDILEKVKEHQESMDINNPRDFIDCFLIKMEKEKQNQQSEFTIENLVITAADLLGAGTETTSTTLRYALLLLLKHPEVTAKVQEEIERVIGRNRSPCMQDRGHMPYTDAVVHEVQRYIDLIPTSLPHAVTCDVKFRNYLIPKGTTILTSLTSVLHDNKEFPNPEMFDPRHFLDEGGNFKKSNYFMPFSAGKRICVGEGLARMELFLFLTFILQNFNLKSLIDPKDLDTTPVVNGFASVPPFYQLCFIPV
T2 sequence (Q12809 whole entry): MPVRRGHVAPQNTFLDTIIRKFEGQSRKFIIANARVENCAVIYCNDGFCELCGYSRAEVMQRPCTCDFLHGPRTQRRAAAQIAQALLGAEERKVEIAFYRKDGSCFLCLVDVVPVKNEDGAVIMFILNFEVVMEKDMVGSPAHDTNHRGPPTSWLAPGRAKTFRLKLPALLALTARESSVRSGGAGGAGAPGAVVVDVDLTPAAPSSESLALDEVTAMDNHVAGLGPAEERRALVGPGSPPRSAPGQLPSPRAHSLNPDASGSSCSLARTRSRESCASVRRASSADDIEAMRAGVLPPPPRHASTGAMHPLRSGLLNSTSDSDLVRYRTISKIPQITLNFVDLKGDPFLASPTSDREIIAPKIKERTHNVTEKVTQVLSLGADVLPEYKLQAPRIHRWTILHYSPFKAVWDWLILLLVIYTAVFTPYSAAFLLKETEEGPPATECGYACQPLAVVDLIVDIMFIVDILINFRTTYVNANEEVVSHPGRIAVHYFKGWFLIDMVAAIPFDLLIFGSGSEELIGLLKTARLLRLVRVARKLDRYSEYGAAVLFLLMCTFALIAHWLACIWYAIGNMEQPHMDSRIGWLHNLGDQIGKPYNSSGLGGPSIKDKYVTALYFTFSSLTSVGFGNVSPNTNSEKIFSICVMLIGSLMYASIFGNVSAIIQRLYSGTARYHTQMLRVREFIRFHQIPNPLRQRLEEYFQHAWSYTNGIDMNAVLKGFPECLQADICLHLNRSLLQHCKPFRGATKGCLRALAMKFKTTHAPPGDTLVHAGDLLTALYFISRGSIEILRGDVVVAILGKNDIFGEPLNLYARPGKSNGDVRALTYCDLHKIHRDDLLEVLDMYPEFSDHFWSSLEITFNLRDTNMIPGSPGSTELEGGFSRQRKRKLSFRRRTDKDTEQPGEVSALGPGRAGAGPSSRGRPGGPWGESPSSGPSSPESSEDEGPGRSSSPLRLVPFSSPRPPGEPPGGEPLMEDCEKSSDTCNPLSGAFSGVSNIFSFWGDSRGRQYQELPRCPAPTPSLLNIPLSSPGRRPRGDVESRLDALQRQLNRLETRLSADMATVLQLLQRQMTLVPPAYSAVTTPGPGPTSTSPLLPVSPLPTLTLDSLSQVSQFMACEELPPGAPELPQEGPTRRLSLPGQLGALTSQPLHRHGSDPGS
T7 sequence (P10635 whole entry): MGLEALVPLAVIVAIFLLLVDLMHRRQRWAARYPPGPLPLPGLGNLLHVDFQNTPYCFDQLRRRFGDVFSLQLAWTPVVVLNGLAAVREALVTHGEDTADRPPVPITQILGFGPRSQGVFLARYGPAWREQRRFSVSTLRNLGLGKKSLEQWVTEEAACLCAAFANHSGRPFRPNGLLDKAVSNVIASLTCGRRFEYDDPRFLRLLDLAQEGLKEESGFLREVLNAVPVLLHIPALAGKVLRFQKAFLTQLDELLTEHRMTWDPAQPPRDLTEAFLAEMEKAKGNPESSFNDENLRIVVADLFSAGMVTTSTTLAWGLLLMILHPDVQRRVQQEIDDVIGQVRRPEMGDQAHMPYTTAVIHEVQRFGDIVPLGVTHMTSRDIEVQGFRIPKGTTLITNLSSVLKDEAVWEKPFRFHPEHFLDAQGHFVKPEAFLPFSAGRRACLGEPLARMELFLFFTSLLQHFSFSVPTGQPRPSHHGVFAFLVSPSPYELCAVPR

SMILES | IC50 (Recombinant human BACE1) | IC50 [1] | solubility kinetic at 1 h (Solubility test; [5]) | solubility kinetic at 1 h (Solubility test; JP 2nd fluid B, pH 6.8, aqueous buffer, kinetic from dmso stock, read-out: JP2_μM) | remaining % (Metabolic stability test) | hERG_3 uM_% [2] | ER ratio (Cell: MDR1/LLC-PK1) [3] | IC50 (CYP1A2) | IC50 (CYP2C9) | IC50 (CYP2C19) | IC50 (CYP2D6) | IC50 (CYP3A4) | solubility kinetic at 16 h (Solubility test; [6]) | IC50 [4] | solubility kinetic at 16 h (Solubility test; JP 1st fluid, 25 °C, pH 1.2, simulated gastric fluid, kinetic from dmso stock, read-out: JP1) | solubility kinetic at 16 h (Solubility test; JP 2nd fluid A, 25 °C, pH 6.8, aqueous buffer, kinetic from dmso stock, read-out: JP2_μM)
C[C@H]1SC(N)=N[C@](C)(c2cc(NC(=O)c3ccc(OCC(F)(F)F)cn3)ccc2F)[C@H]1F [Compound I-54] | 13 nM | 7.2 nM | > 50 µM | 38.6 µM (≈ 18.3 µg/mL) | 91% | 37.7% | 1.9 |  |  |  |  |  |  |  |  | 
COCC(F)(F)[C@H]1OC(N)=N[C@](C)(c2cc(NC(=O)c3ccc(C#N)cn3)ccc2F)[C@H]1F [Compound I-78] | 7.35 nM | 6.7 nM | > 50 µM |  |  | 39.6% |  | ≥ 20000 nM | ≥ 20000 nM | ≥ 20000 nM | ≥ 10000 nM | ≥ 10000 nM | >50 µM |  |  | 
COc1ccc(C(=O)Nc2ccc(F)c([C@@]3(C)N=C(N)SCC34CC(F)(F)C4)c2)nc1 [Compound I-57] | 16.1 nM | 0.68 nM | > 50 µM |  |  |  | 0.6 | ≥ 20000 nM | ≥ 20000 nM | ≥ 20000 nM |  | ≥ 10000 nM | >50 µM |  |  | 
Cc1cc(C#N)cnc1C(=O)Nc1ccc(F)c([C@@]2(C)N=C(N)SCC23CC(F)(F)C3)c1 [Compound I-60] | 6.62 nM | 0.29 nM | > 50 µM |  |  |  | 1.4 | ≥ 20000 nM | ≥ 20000 nM | ≥ 20000 nM |  |  | >50 µM |  |  | 
CO[C@H]1[C@@H](CF)OC(N)=N[C@]1(C)c1cc(NC(=O)c2ccc(Cl)cn2)ccc1Cl [Compound I-21] |  |  |  |  |  | 51.1% |  | ≥ 20000 nM | ≥ 20000 nM | ≥ 20000 nM |  | ≥ 20000 nM |  | 2.93 nM | 28.8 µM (≈ 12.7 µg/mL) | > 50 µM
